According to article PMC2244645, “Peptide ligand screening of α-synuclein aggregation modulators by in silico panning” (BMC Bioinformatics, 2007):
Peptide text beside a SMILES is read from it.

Columns and labels:
α-synuclein [1] = target: T1, α-synuclein (Homo sapiens, UniProt P37840); assay: surface plasmon resonance binding (CM5 sensor chip); conditions: Scatchard plot; for affinity to α-synuclein (in words): peptide immobilized on CM5 chip by amine coupling, α-synuclein injected
T1 construct: made in house; host or cells: Escherichia coli BL21(DE3)
Description: The affinities of the screened peptides were determined by surface plasmon resonance measurement. The screened peptides were immobilized on a CM5 sensor chip by amine coupling. […] Thus, we added an alanine residue to the N-terminals of these peptides to immobilize them on the CM5 sensor chip and evaluated them. The dissociation constants were determined using a Scatchard plot. […] In the case of PTYF, its KD was more than 10 times that of QSTQ. Since docking simulation still has problems inaccuracy, we have to evaluate several peptides to find good ligands. In this study, we can obtain the high affinity peptide by assaying the top 4 peptides.
Human wild-type α-synuclein expressed in Escherichia coli BL21(DE3) cells transformed the pET28a/human α-synuclein WT plasmid. Following induction with 1 mM isopropyl-1-thio-β-D-galactopyranoside, the α-synuclein was purified by anion exchange chromatography. The bacterial cells were harvested by centrifugation at 5,000 g for 10 min and lysed in 500 mM NaCl, 20 mM Tris-HCl, pH 8.0, and 1 mM EDTA. The lysate was then boiled for 20 min, and centrifuged for 10 min at 20,000 g. The supernatant was dialyzed against 20 mM Tris-HCl, pH 8.0, loaded onto a ResourseQ 6-ml column (Amersham Biosciences) equilibrated in the same buffer, and eluted with a 0 ~1 M NaCl gradient. The α-synuclein-containing fraction was dialyzed against 10 mM Tris-HCl, pH 7.4.
All peptides were immobilized onto the CM5 sensor chip by amine coupling. The CM5 sensor chip (Biacore) was activated by an equimolar mix of NHS (N-hydroxysuccinimide) and EDC (N-ethyl-N'-(dimethylaminopropyl) carbodiimide), coupled with 100 μg/mL of the synthesized peptide in pH-6.0 sodium acetate buffer, and then blocked with ethanolamine. For reference, only activation and protection was carried out, in the same way as mentioned above. The final coupling level of each peptide was approximately 100 RU. Each of the α-synuclein solutions was injected, and at different concentrations a signal increase was observed. The sensor surface was regenerated using 0.5% SDS. The dissociation constants were determined using a Scatchard plot and an equilibrium point.

α-synuclein [2] = target: T1, α-synuclein; assay: Thioflavin T (TfT) binding assay of α-synuclein fibril formation; format: biochemical; conditions: α-synuclein 140 μM, peptide 700 μM (5-fold molar excess), 10 mM Tris-HCl pH 7.4, 0.02% NaN3, 37°C, shaking; 25 μM TfT
Description: (§1) To determine the effect of peptides on α-synuclein aggregation, we co-incubated α-synuclein with 5-fold molar excess of the screened peptides. The α-synuclein fibril amounts were evaluated by Thioflavin T (TfT) binding assay. It is known that when TfT binds to amyloid fibrils, the fluorescence intensity around 480 nm increases. […] Next, to determine whether or not these increases in fluorescence intensity depend on the fibril amount, we examined the aggregation amount by a light scattering assay at 330 nm. The value of optical density at 330 nm of the α-synuclein solution with the top peptides was also higher compared with that of the α-synuclein solution without peptide, as shown in Figure 4.
Figure 3 Time course of α-synuclein fibril formation. […] 100% is the final fluorescence intensity of α-synuclein without peptide. […]
(§2) All the protein samples were concentrated to approximately 4.0 mg/ml by means of Amicon Ultra-15 filters (Millipore) in 10 mM Tris-HCl, pH 7.4, and centrifuged at 150,000 g for 60 min to remove the insoluble aggregates. […] Fibril formation was monitored by thioflavin T (TfT) fluorescence: 10 μl aliquots were sampled from the incubated samples and added to 1.0 ml of 25 μM TfT in 10 mM Tris buffer, pH 7.4. Fluorescence emission was measured at 485 nm at an excitation wavelength of 450 nm on a FP6500 spectrofluorometer (JASCO). […]

α-synuclein [3] = target: T1, α-synuclein; assay: light scattering assay at 330 nm (total aggregation); format: biochemical; conditions: 5-fold molar excess of peptide, 10 mM Tris-HCl pH 7.4, 0.02% NaN3, 37°C, shaking
Description: as §1
Figure 4 Light scattering assay. […] 100% is the optical density at 330 nm of α-synuclein without peptide. […]
as §2

α-synuclein [4] = conditions: cited from earlier work
[5] = tested on: α-synuclein 68–78 (GAVVTGVTAVA); conditions: ref [14]; cited from earlier work
From the text: To obtain an effective peptidic aggregation inhibitor, the peptide should bind to the region that plays an important role in amyloid fibril formation. The hydrophobic central region of α-synuclein called the "non-amyloid-β component of the amyloid plaque" (NAC) (residues 61–95) is the most important region in the formation of amyloid-like fibrils.

SQTQ [tetramer peptide from in silico panning, rank 3]
affinity to α-synuclein (in words) (α-synuclein [1]): lower affinity than QSTQ and AQTQ

C[C@@H](O)[C@H](NC(=O)[C@H](CO)NC(=O)[C@@H](N)CCC(N)=O)C(=O)N[C@@H](CCC(N)=O)C(=O)O [QSTQ] (H-QSTQ-OH; N-terminus and C-terminus assumed)
fluorescence intensity of TfT relative to solution without peptide (α-synuclein [2]): more than 1.5 times | optical density at 330 nm relative to solution without peptide (α-synuclein [3]): more than 1.5 times

GSQQ [tetramer peptide from in silico panning, rank 2]
affinity to α-synuclein (in words) (α-synuclein [1]): lower affinity than QSTQ and AQTQ

AQTQ [tetramer peptide from in silico panning, rank 4]
affinity to α-synuclein (in words) (α-synuclein [1]): bound to α-synuclein with similar affinity of QSTQ | optical density at 330 nm relative to solution without peptide (α-synuclein [3]): more than 1.5 times

N[C@@H](Cc1ccc(O)c(O)c1)C(=O)O [L-DOPA]
cytotoxicity (in words) (α-synuclein [4]): enhance cytotoxicity

PTYF
KD relative to KD of QSTQ (α-synuclein [1]; peptide immobilized on CM5 chip, alanine residue added to N-terminal): more than 10 times

GAVVTGVTAVA [α-synuclein 68–78, partial peptide in NAC, the target 11-mer peptide]
amyloid-like fibril formation by itself (in words) [5]: form amyloid-like fibrils by themselves
